Test results: article PMC4368888, “Preclinical to Clinical Translation of CNS Transporter Occupancy of TD-9855, a Novel Norepinephrine and Serotonin Reuptake Inhibitor” (International Journal of Neuropsychopharmacology, 2015)
Where two headings read alike, the source gives them in different places.

Key:
rat native NET = assay: [3H]-NE uptake inhibition in rat cortical synaptosomes; format: biochemical; conditions: rat cortical synaptosomes, uptake
Source text: (§1) The in vitro pharmacology of TD-9855 (4-[2-(2, 4, 6-trifluorophenoxymethyl)phenyl]piperidine; Figure 1) at human recombinant and rat native monoamine transporters was characterized as described previously ([Tsuruda et al., 2010]; [Shen et al., 2013]). Radioligands were sourced commercially (Perkin Elmer Life Sciences or GE Healthcare Life Sciences). Briefly, membranes prepared from HEK293 (Human Embryonic Kidney 293) cells stably-transfected with human recombinant SERT (HEK293-hSERT), NET (HEK293-hNET), or DAT ([…]) were incubated for 1hr at 22°C in the absence, or presence, of TD-9855 and [^3H]-citalopram (1.0nM) for SERT, [^3H]-nisoxetine (2.0nM) for NET, and [^3H]-WIN35428 (3.0nM) for DAT in 50mM Tris-HCl, 120mM NaCl, 5mM KCl, 0.025% BSA, 100 μM ascorbic acid, pH 7.4. Rat cortical membrane preparations were incubated with [^3H]-citalopram (2.0nM) for SERT or [^3H]-nisoxetine (4.0nM) for NET for 1hr at 22°C. […] Binding and uptake assays were terminated by rapid filtration and radioactivity, determined by liquid scintillation spectroscopy.

rat native DAT = molecular target: T1, rat native DAT (Rattus norvegicus, UniProt P23977); assay: [3H]-DA uptake inhibition in rat striatal synaptosomes; format: biochemical; conditions: mean (95% CI), 3 to 9 experiments, read-out: Neurotransmitter Uptake Inhibition: pIC50 DAT (converted)
T1 construct: at human recombinant and rat native monoamine transporters; from tissue; host or cells: rat striatal synaptosomes
T1 sequence (P23977 whole entry): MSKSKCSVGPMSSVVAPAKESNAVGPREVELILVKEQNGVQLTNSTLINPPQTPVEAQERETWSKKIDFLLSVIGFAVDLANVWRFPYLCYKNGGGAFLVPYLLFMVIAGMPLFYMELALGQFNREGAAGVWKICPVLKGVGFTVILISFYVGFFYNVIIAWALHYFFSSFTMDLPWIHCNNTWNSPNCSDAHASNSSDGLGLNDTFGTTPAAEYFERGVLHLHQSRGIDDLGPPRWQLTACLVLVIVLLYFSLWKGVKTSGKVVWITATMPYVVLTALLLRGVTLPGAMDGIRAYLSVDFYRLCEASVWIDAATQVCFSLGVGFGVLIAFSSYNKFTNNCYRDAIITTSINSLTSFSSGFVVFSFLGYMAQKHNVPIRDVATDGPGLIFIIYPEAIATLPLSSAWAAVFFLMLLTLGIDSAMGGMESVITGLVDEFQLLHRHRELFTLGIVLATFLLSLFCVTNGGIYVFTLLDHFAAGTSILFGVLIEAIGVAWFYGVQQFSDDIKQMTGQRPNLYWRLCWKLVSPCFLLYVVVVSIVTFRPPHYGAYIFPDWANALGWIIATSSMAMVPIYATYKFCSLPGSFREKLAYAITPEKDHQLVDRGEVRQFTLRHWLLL
Source text: as §1

human recombinant DAT = molecular target: T2, human recombinant DAT (Homo sapiens, UniProt Q01959); assay: [3H]-WIN35428 equilibrium binding, CHO-K1-hDAT membranes; conditions: mean (95% CI), 3 to 9 experiments, read-out: Transporter Binding: pKi DAT (converted)
T2 construct: expressed in transfected cells; 'hDAT cells' for uptake
T2 sequence (Q01959 whole entry): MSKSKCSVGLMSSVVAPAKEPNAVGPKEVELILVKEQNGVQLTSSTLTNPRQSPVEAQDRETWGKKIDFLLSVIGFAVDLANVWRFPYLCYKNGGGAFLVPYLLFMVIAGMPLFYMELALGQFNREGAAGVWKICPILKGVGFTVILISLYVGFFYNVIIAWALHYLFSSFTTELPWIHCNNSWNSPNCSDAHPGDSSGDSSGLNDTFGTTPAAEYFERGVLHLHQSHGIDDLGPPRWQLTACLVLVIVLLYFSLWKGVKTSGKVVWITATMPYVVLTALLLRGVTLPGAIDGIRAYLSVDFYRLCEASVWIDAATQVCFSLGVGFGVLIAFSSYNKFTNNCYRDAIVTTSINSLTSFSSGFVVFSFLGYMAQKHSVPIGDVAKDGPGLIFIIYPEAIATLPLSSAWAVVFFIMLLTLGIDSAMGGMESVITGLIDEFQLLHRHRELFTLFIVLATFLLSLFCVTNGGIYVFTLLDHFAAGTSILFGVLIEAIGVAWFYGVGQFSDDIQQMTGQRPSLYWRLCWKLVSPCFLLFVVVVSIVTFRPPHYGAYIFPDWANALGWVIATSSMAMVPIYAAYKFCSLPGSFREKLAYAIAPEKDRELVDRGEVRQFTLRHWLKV
Source text: as §1

rat native SERT = molecular target: T3, rat native SERT (Rattus norvegicus, UniProt P31652); assay: [3H]-citalopram binding, rat cortical membranes; conditions: mean (95% CI), 3 to 9 experiments, read-out: Transporter Binding: pKi SERT (converted)
T3 construct: at human recombinant and rat native monoamine transporters; from tissue
T3 sequence (P31652 whole entry): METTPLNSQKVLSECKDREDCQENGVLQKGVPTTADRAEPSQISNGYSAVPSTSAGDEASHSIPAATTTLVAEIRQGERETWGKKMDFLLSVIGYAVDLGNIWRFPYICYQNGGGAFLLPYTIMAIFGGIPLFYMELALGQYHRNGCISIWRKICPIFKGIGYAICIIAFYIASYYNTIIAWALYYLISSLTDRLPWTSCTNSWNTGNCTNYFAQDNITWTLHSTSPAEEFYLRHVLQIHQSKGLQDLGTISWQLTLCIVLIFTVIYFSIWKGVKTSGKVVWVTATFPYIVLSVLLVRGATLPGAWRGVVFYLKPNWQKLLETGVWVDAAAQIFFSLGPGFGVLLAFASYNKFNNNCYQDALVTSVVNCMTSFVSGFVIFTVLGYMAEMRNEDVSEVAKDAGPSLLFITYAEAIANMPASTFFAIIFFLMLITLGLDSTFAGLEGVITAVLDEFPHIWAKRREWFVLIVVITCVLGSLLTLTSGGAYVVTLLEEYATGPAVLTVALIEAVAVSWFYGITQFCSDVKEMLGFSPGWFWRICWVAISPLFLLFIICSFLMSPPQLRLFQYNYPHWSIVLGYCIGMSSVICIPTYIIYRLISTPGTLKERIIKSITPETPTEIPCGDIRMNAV
Source text: as §1

in vivo = conditions: Sprague Dawley, rat, po
Protocol: TD-9855 Rat Administration and Sampling — Rats (n = 6/timepoint/dose level) received a single oral dose of TD-9855 (0.3, 1, 5, 10, 30, and 60mg/kg) and were euthanized by decapitation at specified time points (0.5, 2, 4, 6, and 8hr for 5mg/kg dose level; 2hr for 0.3, 1, 10, 30, and 60mg/kg dose levels) post-administration. Spinal cords were dissected for ex vivo transporter occupancy and PK assessments from the same animals. The spinal cord was harvested by hydraulic extrusion using phosphate-buffered saline, and the lumbar segment dissected and frozen on dry ice. The remaining spinal cord segments were collected and homogenized in water (25% w/w) for PK analysis. All samples were stored at -80 °C until analysis.
Rat PK/PD Modeling — PK/PD parameters were estimated by a compartmental modeling approach (WinNonlin Version 5.0.1, Pharsight Corporation). One- and two-compartment PK models with first-order absorption and elimination were evaluated. The one-compartment model was selected. The pharmacodynamic model was an effect compartment Emax model linked directly to the central PK compartment (WinNonlin PK Model 3, PD Model 101). Selection of models was based upon best fit in terms of visual inspection, Akaike Information Criteria, and weighted residual sum of squares using the Gauss-Newton minimization method. The following parameters were estimated:
k01 (hr^-1): First-order absorption rate constant.
V/F (L/kg): Volume of the central compartment divided by oral bioavailability
k10 (hr^-1): Elimination rate constant from the central compartment

[1] = Human plasma pharmacokinetics; format: in vivo; conditions: 20mg single oral dose, Day 1, n = 3
Protocol: Four 6mL samples were drawn at 2, 4, 6, and 24hr post TD-9855 dosing. Three additional 6mL samples were drawn prior to each PET scan and approximately 60 and 120min after the beginning of each PET scan. Plasma samples were analyzed for TD-9855 concentrations by a validated LC-MS/MS method. The lower limit of quantification for TD-9855 was 0.05ng/mL.

NET [2] = molecular target: T4, NET (Homo sapiens, UniProt P23975); assay: Transporter binding kinetics in vitro at human NET
T4 sequence (P23975 whole entry): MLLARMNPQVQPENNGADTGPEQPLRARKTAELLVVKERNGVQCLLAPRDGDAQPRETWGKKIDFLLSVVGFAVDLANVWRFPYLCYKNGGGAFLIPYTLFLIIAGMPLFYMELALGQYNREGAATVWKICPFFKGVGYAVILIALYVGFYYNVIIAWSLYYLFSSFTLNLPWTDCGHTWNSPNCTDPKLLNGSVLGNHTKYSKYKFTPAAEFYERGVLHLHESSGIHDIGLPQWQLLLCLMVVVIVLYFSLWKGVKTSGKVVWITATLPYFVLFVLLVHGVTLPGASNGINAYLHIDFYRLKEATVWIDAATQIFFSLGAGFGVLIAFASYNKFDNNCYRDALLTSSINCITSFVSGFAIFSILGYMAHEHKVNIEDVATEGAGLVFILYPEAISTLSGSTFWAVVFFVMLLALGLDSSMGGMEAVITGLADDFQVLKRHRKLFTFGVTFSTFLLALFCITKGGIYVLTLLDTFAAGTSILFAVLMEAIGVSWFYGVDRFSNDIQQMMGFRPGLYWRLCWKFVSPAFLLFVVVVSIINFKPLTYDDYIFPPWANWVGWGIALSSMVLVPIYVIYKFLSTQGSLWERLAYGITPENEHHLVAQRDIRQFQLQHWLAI

[3] = human, data on file, cited from earlier work
[4] = design: method as in Theravance Biopharma US, Inc., data on file; conditions: rat; ref Theravance Biopharma US, Inc., data on file; cited from earlier work
[5] = design: method as in Theravance Biopharma US, Inc., data on file; conditions: human; ref Theravance Biopharma US, Inc., data on file; cited from earlier work
NET [6] = molecular target: T4, NET; assay: [3H]-NE uptake inhibition in HEK293-hNET cells; format: cell-based; design: expressed in transfected cells; host or cells: HEK293 (HEK293-hNET), stably transfected
Source text: as §1

NET [7] = molecular target: T4, NET; assay: [3H]-nisoxetine equilibrium binding, HEK293-hNET membranes; design: expressed in transfected cells; host or cells: HEK293 (HEK293-hNET), stably transfected; conditions: mean (95% CI), 3 to 9 experiments, read-out: Transporter Binding: pKi NET (converted)
Source text: as §1

In the case of `Fc1cc(F)c(OCc2ccccc2C2CCNCC2)c(F)c1` [TD-9855, 4-[2-(2,4,6-trifluorophenoxymethyl)phenyl]piperidine], the “functional selectivity for NET over SERT” value (rat native NET) is reported as 10 fold, the IC50 (rat native DAT) is reported as 126 nM and the Ki (human recombinant DAT) is reported as 200 nM. For the same molecule, the Ki (rat native SERT) was 3.16 nM, the “K01, first-order absorption rate constant” value (in vivo) was 0.777 (108) hr^-1 and the V/F (in vivo) was 54.8 (66) L/kg. For the same molecule, the k el (in vivo) was 8.86e-05 s⁻¹, the “mean plasma concentration at SERT scan” value [1] was 6.35 ng/mL and the kon (NET [2]; read-out: association rate constant at NET (converted)) was 917000 M⁻¹ s⁻¹. For the same molecule, the koff (NET [2]; read-out: dissociation rate constant at NET (converted)) was 0.00115 s⁻¹, the Tmax ([3]; ascending single dose studies, ref Theravance Biopharma US, Inc.) was 6 to 12 h and the “pharmacokinetic (plasma) half-life” value ([3]; ref Theravance Biopharma US, Inc.) was 30 to 40 h. The “accumulation in plasma after repeated administration” value ([3]; ref Theravance) was 3- to 4 fold, the plasma protein binding [4] was 90.2% and the plasma protein binding [5] was 79.1%. For the same molecule, the “selectivity for inhibition of NET over SERT” value (NET [6]; human transporters, neurotransmitter uptake) was 4 fold, the “inhibitory selectivity for NE” value (NET [6]; uptake in vitro, human and rat transporters) was 4- to 10 fold and the Ki (NET [7]) was 1.58 nM.
